Reference: patent publication US5883136A, “Anhydroretinol and derivatives thereof as antagonists of immune responses and inhibitors of cancer cell growth” (Sloan-Kettering Institute for Cancer Research, priority 1995, dated 1999)
Where two headings read alike, the source gives them in different places. Values belong to the compound of their own block, whether it stands above or below them.

Experiments:
[1] = molecular target: T1, serum retinol binding protein (RBP) (Homo sapiens, UniProt P02753); experiment: Dissociation constant to serum retinol binding protein by fluorometric titration
T1 construct: Human RBP was purified from human serum; from tissue; host or cells: human serum
Protocol: (§1) Apo-protein (1-3 μM) was titrated with the appropriate all-trans-retinoid dissolved in ethanol and the titration was followed by measuring the increase in the fluorescence of the retinoids upon binding. Reaction mixtures included 150 mM NaCl, 0.1 mM DTT, and 25 mM HEPES; pH's were 7.0 and 7.4, respectively. […] Data analyses were performed as described by Cogan et al. (14). Human RBP was purified from human serum by means of a transthyretin column (15). Human CRBP I and CRABP I were gifts from Dr. W. S. Blaner (Columbia University, New York, N.Y.) and Dr. J. Napoli (SUNY, Buffalo, N.Y.), respectively.

[2] = molecular target: T2, cellular retinol binding protein (CRBP I) (Homo sapiens, UniProt P09455); experiment: Dissociation constant to cellular retinol binding protein by fluorometric titration; details: for Kd: fluorometric titration, 150 mM NaCl, 0.1 mM DTT, 25 mM HEPES
T2 sequence (P09455 1-135): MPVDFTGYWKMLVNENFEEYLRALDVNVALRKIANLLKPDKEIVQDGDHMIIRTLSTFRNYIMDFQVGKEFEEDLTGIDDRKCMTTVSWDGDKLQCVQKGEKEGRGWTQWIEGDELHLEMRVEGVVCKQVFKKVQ
Protocol: as §1

[3] = system: interleukin-2 (IL-2); experiment: IL-2 release by stimulated thymocytes, CTLL assay; format: cell-based, murine; details: for IL-2 production: presence or absence of retinol or 14-HRR, previous unpublished work
Protocol: (§2) Murine thymocytes (2×10^5 /well in triplicates) were cultured in ITLB medium in 96-well plates coated with 10 μg/ml anti-CD3^ε mAB (12) as described (3). […] Cell proliferation was tested on day 3 by ^3 H thymidine incorporation into DNA. […] The results of cell proliferation assays performed at 72 hours are shown. […] CTLL proliferation was measured by ^3 H thymidine incorporation into DNA (FIG. 4D). The standard deviation of triplicate measurements were <10%.

[4] = molecular target: cellular retinoic acid binding protein (CRABP I) (Homo sapiens, UniProt P29762); experiment: Dissociation constant to cellular retinoic acid binding protein by fluorometric titration; details: no binding = no significant binding could be detected
cellular retinoic acid binding protein (CRABP I), sequence (P29762 whole entry): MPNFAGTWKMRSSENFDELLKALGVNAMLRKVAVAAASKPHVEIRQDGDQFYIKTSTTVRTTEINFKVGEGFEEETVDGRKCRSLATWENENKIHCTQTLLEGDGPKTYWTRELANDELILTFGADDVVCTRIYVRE
Protocol: as §1

[5] = system: IL-2 receptor; experiment: IL-2 receptor expression of activated T cells; format: cell-based; details: presence or absence of retinol or 14-HRR, previous unpublished work
[6] = system: CTLL cell line; experiment: CTLL cell line proliferation, 3H thymidine incorporation; format: cell-based; details: for CTLL proliferation: control experiments; for CTLL responsiveness to retinol and AR: with recombinant IL-2, broad dose ranges, data not shown
Protocol: as §2

[7] = system: Murine thymocytes; details: T cell receptor-generated signals, serum-free medium, ref. (3); cited from earlier work
[8] = system: Il-2 dependent TH cell clones and T cell hybridoma; experiment: Growth of Il-2 dependent TH cell clones and T cell hybridoma; format: cell-based; details: previous unpublished observations
[9] = system: T cell leukemia line Jurkat; experiment: Jurkat T cell leukemia growth, viable cell count with trypan blue; format: cell-based, human
Source text: Viable cells in each culture were counted. On days 4 and 6 nutrients were replenished.
The T cell leukemia line Jurkat was transferred from normal, FCS-containingmedium to serum-free medium ITLB. […] Cells were counted daily differentially in the presence of trypan blue, and the total number of cells generated in each culture plotted in FIG. 3A. It is evident that cells deprived of retinol decline in numbers as compared to cells with retinol.

[10] = system: DU145; experiment: Tumor cell sensitivity to anhydroretinol, prostate carcinoma; format: cell-based; details: DU145, FIG. 6A
Source text: (§3) FIGS. 6A-6B show titrations for the inhibition by AR of prostate carcinoma cell lines DU145, PC-3 and LNCAP.

[11] = system: LNcAP; experiment: as above; format: cell-based; details: FIG. 6C
Source text: as §3

[12] = system: SF 21 cells; experiment: Metabolites of [3H] retinol in SF 21 cells, HPLC; format: in vitro ADME, insect; details: SF 21, 4 hours, FIG. 1B
Protocol: (§4) After 4 hours (FIGS. 1A and 1B) or after 16 hours (FIG. 1C) retinoids were extracted from the washed cell pellet according to the procedure of McClean et al. (16). Retinoids were separated on an analytical C18 reversed-phase column and detected with an on-line scintillation counter using the methodology described in Buck et al. (4). […] The peak eluting at minute 29 is the all-trans anhydroretinol, whereas the companion peaks at minute 27 and 28 represent cis-isomers (14). All isomers yield spectra with characteristic vibronic fine structure similar to the spectrum of all-trans AR.

[13] = system: resting T lymphocytes; experiment: Activation of resting T lymphocytes (summary statement); format: cell-based
[14] = system: lymphocytes; experiment: Cultures of lymphocytes with 14-HRR as agonist; format: cell-based; details: FIGS. 2B and 4B
[15] = system: Murine thymocytes; experiment: Activation of murine thymocytes with anti-CD3, 3H thymidine incorporation; format: cell-based
Protocol: as §2

[16] = system: murine B cell lymphoma; experiment: Inhibition of murine B cell lymphoma by AR; format: cell-based
[17] = system: 14-HRR synthesis; experiment: Metabolic rate of 14-HRR synthesis from 3H labelled retinol; format: cell-based; details: hundredfold excess of AR, data not shown
Source text: Therefore, competitive inhibition at the level of CRBP is a realistic possibility to explain the retinol-AR antagonism. […] By inference, a separate 14-HRR binding protein/receptor, as yet to be defined, may exist.

[18] = system: SF-9 cells; experiment: Metabolites of [3H] retinol in SF-9 cells, HPLC; format: in vitro ADME, insect; details: SF-9, 4 hours, FIG. 1A
Protocol: as §4

[19] = system: lymphocytes; experiment: Metabolism by lymphocytes to retinol or 14-HRR; format: in vitro ADME; details: unpublished data
[20] = system: B lymphocyte; experiment: B lymphocyte proliferation (summary statement); format: cell-based
[21] = system: human lymphoblastoid cell lines; experiment: B lymphoblastoid cell proliferation, 3H thymidine incorporation (Hom 2, Jest, Ducaf); format: cell-based; details: several randomly selected lines, FIG. 2D
Protocol: (§5) Human B lymphoblastoid cells (e.g., cell line 5/2) were cultured in medium RPMI 1640 with 7% fetal calf serum. On the day of the assay, cells were washed and transferred to serum-free medium, RPMI 1640 supplemented with insulin, transferrin, linoleic acid, and bovine albumin (ITLB medium) as described (3). Test reagents at indicated concentrations were added to triplicate cultures of […] in 96 well plates (final volume of 200 μl/well) and cell proliferation tested 1 day (FIGS. 2B, 2C, 2D) or 3 days later (FIG. 2A) by ^3 H thymidine incorporation into DNA. […] Three additional human lymphoblastoid cell lines, Hom 2, Jest and Ducaf were tested under the conditions specified for FIG. 2A (FIG. 2D).

[22] = system: Human B lymphoblastoid cells (5/2); experiment: B lymphoblastoid cell proliferation, 3H thymidine incorporation; format: cell-based
Protocol: as §5

[23] = system: Human lymphoblastoid 5/2 cells; experiment: Metabolites of [3H] retinol in lymphoblastoid 5/2 cells, HPLC; format: in vitro ADME; details: 5/2, 16 hours, FIG. 1C
Protocol: as §4

SMILES: CC(C=CC=C(C)C(O)CO)=CC=C1C(C)=CCCC1(C)C (stereo not drawn) [Compound 14-HRR, 14-hydroxy-4,14-retro-retinol]
- Kd [1]: 120 nM
- binding to CRBP [2]: does not bind to CRBP with appreciable affinity
- dissociation constant CRBP I (binding in words) ([2]; no binding = no significant binding could be detected): no binding
- IL-2 production [3]: unaffected
- dissociation constant CRABP I (binding in words) [4]: no binding
- IL-2 receptor expression [5]: unaffected
- CTLL proliferation [6]: completely inert
- activation of resting thymocytes, cofactor dependence [7]: dependent on retinoid cofactors
- growth dependence on retinol and 14-HRR [8]: grow independently

- Kd [2]: 13 nM
- dissociation constant CRABP I (binding in words) [4]: no binding
SMILES: CC1=C(/C=C/C(C)=C/C=C/C(C)=C/CO)C(C)(C)CCC1 [retinol, all-trans retinol]
- rescue of Jurkat cells on reintroduction of retinol ([9]; after day 6): allows rescue of the cells
- dependence of Jurkat cells on retinol ([9]; serum-free medium ITLB, 4×10^-6 M retinol): retinol-dependent
- IL-2 production [3]: unaffected
- IL-2 receptor expression [5]: unaffected
- CTLL proliferation [6]: completely inert
- CTLL responsiveness to retinol and AR [6]: independent of either retinoid
- activation of resting thymocytes, cofactor dependence [7]: dependent on retinoid cofactors
- growth dependence on retinol and 14-HRR [8]: grow independently

- AR as metabolite of [3H] retinol [12]: predominant metabolite
- Kd ([1]; fluorometric titration, 150 mM NaCl, 0.1 mM DTT, 25 mM HEPES, read-out: dissociation constant RBP): 20 nM
- Kd [2]: 23 nM
- dissociation constant CRABP I (binding in words) [4]: no binding
- AR as metabolite of [3H] retinol [18]: undetectable
- metabolism by lymphocytes to retinol or to 14-HRR [19]: not metabolized
- AR as metabolite of [3H] retinol [23]: also produced AR
SMILES: C=CC(C)=CC=CC(C)=CC=C1C(C)=CCCC1(C)C [AR, Anhydroretinol]
- inhibition by AR, relative sensitivity [10]: highest sensitivity
- inhibition by AR, relative sensitivity [11]: appears to be insensitive
- activation of resting T lymphocytes [13]: block B lymphocyte proliferation as well as activation of resting T lymphocytes
- inhibition of lymphocyte cultures with 14-HRR as agonist [14]: reversibly inhibits
- thymidine uptake of cycling thymocytes ([15]; AR given 2 days after activation, FIG. 4C): able to reduce the thymidine uptake of cycling thymocytes
- inhibition of thymocyte activation ([15]; retinol or 14-HRR as cofactor, anti-CD3, FIGS. 4A, 4B): pronounced
- sensitivity to inhibition by AR [16]: all proved sensitive to inhibition
- IL-2 release ([3]; supernatants after 18 hours, FIG. 4D): did not interfere with IL-2 release
- metabolic rate of 14-HRR synthesis [17]: no change
- B lymphocyte proliferation [20]: block B lymphocyte proliferation
- aid to B cell proliferation [20]: not to aid B cell proliferation
- sensitivity to inhibition by AR [21]: all proved sensitive to inhibition
- antagonism of 14-HRR ([22]; AR 5×10^-6 M vs 1.3×10^-6 M 14-HRR, FIG. 2B): clear antagonism
- antagonism of retinol ([22]; AR 5×10^-6 M vs 3.7×10^-6 M retinol, FIG. 2A): clear antagonism
- support of B cell proliferation ([22]; FIG. 2A): nor does it support B cell proliferation
- inhibition of B cell cultures ([22]; graded concentrations of fetal calf serum (FIG. 2C) or RBP/retinol complex (data not shown)): strongly inhibitory
- ID50 values ([22]; graded concentrations of fetal calf serum or RBP/retinol complex): comparable to those seen in retinol-supplemented cultures
- inhibitory dose (ID50) ([22]; serum-free medium supplemented with retinol or 14-HRR): dependent on the agonist concentration
- competitive antagonism of retinol or 14-HRR ([22]; serum-free medium with retinol or 14-HRR, FIGS. 2A, 2B): competitive antagonist
- growth inhibition of B cell cultures ([22]; ten percent fetal bovine serum containing medium, FIG. 2C): strong growth inhibition
- CTLL proliferation [6]: completely inert
- CTLL responsiveness to retinol and AR [6]: independent of either retinoid
